Laboratory results from patent US20040048754A1, “Compounds for a controlled release of active compounds” (priority 2001, published 2004).
Values belong to the compound of their own block, whether it stands above or below them.

Tests used:
Format in all cases: physicochemical
[1] = Amount of cyclization of the precursor under alkaline hydrolysis conditions (HPLC); settings: 20° C., first step of cyclization only, % relative to total amount of starting compound
Procedure: Buffer solutions were prepared by dissolving two phosphate or borate buffer tablets (origin: Fluka, Switzerland) in a mixture of 160 ml water and 40 ml acetonitrile, respectively. To determine the exact pH value of the reaction solution, 10 ml of the buffer solutions were diluted with 2 ml of acetonitrile and the pH values measured (on a Mettler Toledo MP220 apparatus with an InLab 410 Ag/AgCl glass electrode) to be 7.62 (phosphate buffer) and 10.47 (borate buffer).
0.2 ml of a solution of 35 to 45 mg of the precursors in 25 ml of acetonitrile were added to 1.0 ml of a buffer solution at 20° C. The mixture was immediately injected in a HPLC apparatus (t=0), eluted at 1 ml/min on a reversed phase column with a mixture of water/acetonitrile containing 0.1% of TFA. Then the decrease of the amount of precursor and the simultaneous formation of the cyclized products was monitored at different time intervals at λ=254 and 280 nm. Chromatograms were recorded on a Macherey-Nagel, Nucleosil® 100-5 C18 column (250×4 mm i.d.) using a water/acetonitrile gradient (70:30 to 20:80 during 20 min) or on a Merck Chromolith™ SpeedROD RP-C18e column (50×4.6 mm i.d.) using a water/acetonitrile gradient (70:30 to 40:60 during 3 min).

[2] = Measure of fragrance release (hydrolysis) by UV spectroscopy; settings: phosphate buffer, 20° C., 260-360 nm
Procedure: 2 ml of a precursor solution (35-55 mg in 25 ml of acetonitrile, at 20° C.) were added, at t=0, to 10 ml of a phosphate buffer solution (prepared as described in Example 14).
Hydrolysis was followed by recording the absorption spectra of the reaction mixture at constant time intervals in the range of 260-360 nm with a scanning rate of 960 nm/min until completion of the hydrolysis.

[3] = Amount of perfumery alcohols released by alkaline hydrolysis (HPLC); settings: % relative to total amount of starting compound
Procedure: […] To determine the exact pH value of the reaction solution, 10 ml of the buffer solutions were diluted with 2 ml of acetonitrile and the pH values measured (on a Mettler Toledo […]).
About 25 mg of the precursors were placed in 1 ml of a buffer solution, 0.2 ml of acetonitrile was added and the supernatant solution was immediately injected in a […] HPLC apparatus (t=0), eluted at 3 ml/min on a reversed phase column with a mixture of water/acetonitrile containing 0.1% of TFA. The amount of the released alcohol was monitored by HPLC analysis at different time intervals at λ=214 or 254 nm. An external calibration curve for the corresponding alcohol in acetonitrile has been obtained from 4-8 dilutions. Chromatograms were recorded on a Merck Chromolith™ Performance RP-C18e column (100×4.6 mm i.d.) using a water/acetonitrile gradient (100:0 for 0.2 min then to 0:100 during 10 min or 80:20 to 20:80 during 10 min).

- Amount of cyclized precursor ([1]; pH 7.62, 2.1 h): 98%
Compound: CCCC(Cc1ccccc1)OC(=O)c1ccccc1C(=O)NCCCN(C)CCCNC(=O)c1ccccc1C(=O)OC(CCC)Cc1ccccc1 (racemic) [Example 2b, (±)-bis(1-benzylbutyl)2,2′-(6-methyl-1,11-dioxo-2,6,10-triazaundecane-1,11-diyl)dibenzoate]

- Amount of cyclized precursor ([1]; pH 7.62, 9.4 h): 72%
- Hydrolysis followed by UV absorption spectra [2]: verified
Compound: C=CC(C)(CCC=C(C)C)OC(=O)c1ccccc1C(=O)NCCCN(C)CCCNC(=O)c1ccccc1C(=O)OC(C)(C=C)CCC=C(C)C (racemic) [Example 5b, (±)-bis(1,5-dimethyl-1-vinyl-4-hexenyl) 2,2′-(6-methyl-1,11-dioxo-2,6,10-triazaundecane-1,11-diyl)dibenzoate]

- Amount of cyclized precursor ([1]; pH 7.62, 4.7 h): 97%
Compound: CC(C)=CCC/C(C)=C/COC(=O)/C=C\C(=O)NCCNC(=O)/C=C\C(=O)OC/C=C(\C)CCC=C(C)C [Example 1, (6E,11Z,19Z,24E)-2,6,25,29-tetramethyl-9,22-dioxa-14,17-diaza-2,6,11,19,24,28-triaconta-hexaene-10,13,18,21-tetrone]

- Amount of cyclized precursor ([1]; pH 7.62, 22.4 h): 69%
- Hydrolysis followed by UV absorption spectra [2]: verified
Compound: CN(CCCNC(=O)c1ccccc1C(=O)OC(C)(C)Cc1ccccc1)CCCNC(=O)c1ccccc1C(=O)OC(C)(C)Cc1ccccc1 [Example 3b, bis(1,1-dimethyl-2-phenylethyl) 2,2′-(6-methyl-1,11-dioxo-2,6,10-triazaundecane-1,11-diyl)dibenzoate]

- Amount of cyclized precursor ([1]; pH 10.47, 3.0 h): 98%
Compound: CC(C)(Cc1ccccc1)OC(=O)c1ccccc1C(=O)NCCCCCCCNC(=O)c1ccccc1C(=O)OC(C)(C)Cc1ccccc1 [Example 4, bis(1,1-dimethyl-2-phenylethyl) 2,2′-(1,11-dioxo-2,10-diazaundecane-1,11-diyl)dibenzoate]

- Amount of cyclized precursor ([1]; pH 7.62, 24.6 h): 80%
- Hydrolysis followed by UV absorption spectra [2]: verified
Compound: CC(C)(Cc1ccccc1)OC(=O)c1ccccc1C(=O)NCCCN(CCCCN(CCCNC(=O)c1ccccc1C(=O)OC(C)(C)Cc1ccccc1)CCCNC(=O)c1ccccc1C(=O)OC(C)(C)Cc1ccccc1)CCCNC(=O)c1ccccc1C(=O)OC(C)(C)Cc1ccccc1 [Example 6b, Dendrimer 4-cascade: 1,4-diaminobutane[4-N,N,N′,N′]:N-(2-[(1,1-dimethyl-2-phenylethoxy)carbonyl]benzoyl)propylamine]

- Amount of released alcohol ([3]; pH 10.47, 2 d): 29%
Compound: CC(C)(Cc1ccccc1)OC(=O)c1ccccc1C(=O)NCCCN(CCCNC(=O)c1ccccc1C(=O)OC(C)(C)Cc1ccccc1)CCCN(CCCCN(CCCN(CCCNC(=O)c1ccccc1C(=O)OC(C)(C)Cc1ccccc1)CCCNC(=O)c1ccccc1C(=O)OC(C)(C)Cc1ccccc1)CCCN(CCCNC(=O)c1ccccc1C(=O)OC(C)(C)Cc1ccccc1)CCCNC(=O)c1ccccc1C(=O)OC(C)(C)Cc1ccccc1)CCCN(CCCNC(=O)c1ccccc1C(=O)OC(C)(C)Cc1ccccc1)CCCNC(=O)c1ccccc1C(=O)OC(C)(C)Cc1ccccc1 [Example 7]

Compound: dendrimer 16-cascade: 1,4-diaminobutane[4-N,N,N′,N′:(1-azabutylidene)^2:N-(2-[(1,1-dimethyl-2-phenylethoxy)carbonyl]benzoyl)propylamine [Example 8]
- Amount of released alcohol ([3]; pH 10.98, 4 d, phosphate-bicarbonate buffer in water/acetonitrile 16:9): 69%
